For one experiment, the target named is T1, BK2 receptor (Cavia porcellus, UniProt O70526).
T1 construct: The distal portion of the ileum is removed and placed in ice cold homogenization buffer; from tissue; host or cells: distal ileum of adult male Hartley strain guinea pig, washed 50,000×g pellet of homogenate
T1 sequence (O70526 1-372): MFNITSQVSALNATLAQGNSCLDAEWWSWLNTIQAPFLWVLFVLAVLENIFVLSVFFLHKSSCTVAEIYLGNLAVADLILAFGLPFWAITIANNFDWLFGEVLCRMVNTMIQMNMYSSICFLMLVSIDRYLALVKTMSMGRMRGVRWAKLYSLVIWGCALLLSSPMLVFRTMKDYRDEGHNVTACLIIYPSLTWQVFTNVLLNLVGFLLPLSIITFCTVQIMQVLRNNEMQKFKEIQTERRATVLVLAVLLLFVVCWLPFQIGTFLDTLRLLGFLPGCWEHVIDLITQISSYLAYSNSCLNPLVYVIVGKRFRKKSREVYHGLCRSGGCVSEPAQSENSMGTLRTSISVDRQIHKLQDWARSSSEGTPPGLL
Nature of the experiment: competition with tritiated bradykinin (3H-BK) for BK2 receptor sites in guinea pig ileum. It counts as binding. Particulars: for Activity (reference compounds, 3H-BK binding): screened at 100 μM.

The test system of experiment [1] is bradykinin-induced writhing response. As to the kind of experiment: inhibition of the writhing response induced in mice by exogenous administration of bradykinin. It counts as in vivo, mice (male CD-1).
Where [2] appears, read: 30 mg/kg i.p., bradykinin 0.5 mg/kg i.p. after PGE2.
Setting [3] is: guinea pig ileum homogenate, 80 pM 3H-BK, 90 min, 25° C., pH 6.8, read-out: IC50.
The mark [4] stands for this setting: bradykinin 0.5 mg/kg i.p. after PGE2.
Setting [5] is: guinea pig ileum homogenate, 80 pM 3H-BK.

Structures can show the parent of a compound that is named as a salt. Where two headings read alike, the source gives them in different places.

Procedure for BK2 receptor: This assay is employed to identify compounds which compete specifically with tritiated bradykinin (^3 H-BK) for BK2 receptor sites in guinea pig ileum.
The assay is carried out as follows:
A 350-500 g adult male Hartley strain guinea pig is euthanized by stunning followed by decapitation. The distal portion of the ileum is removed and placed in ice cold homogenization buffer [25 mM N-tris(hydroxymethyl)methyl-2-aminoethane sulfonic acid (TES) 1 mM 1,10-phenanthroline, adjusted to pH 6.8 with NH4 OH]. The contents of the ileal lumen are rinsed out with cold homogenization buffer. The tissue is cut into small pieces and homogenized in 20 volumes of homogenization buffer using a Brinkmann Polytron homogenizer equipped with a PTA 10 TS generator. The tissue is homogenized for 10 seconds, three times, at setting 5.
The homogenate is filtered through a surgical gauze sponge and centrifuged at 50,000×g for 20 minutes at 4° C. The supernatant fluid is discarded and the homogenization and centrifugation procedure is repeated. After discarding the supernatant fluid, the final pellet is resuspended in 40 volumes of assay buffer [25 mM TES, pH=6.8, 1 mM 1,10-phenanthroline, 1 mM dithiothreitol, 2 μM captopril, 140 μg/ml bacitracin and 0.1% bovine serum albumin (BSA)]. The homogenate is filtered once more through a surgical gauze sponge and kept on ice until use.
The assay is performed using only polypropylene pipet tips and polypropylene test tubes. Each tube receives 100 μl of 800 pM ^3 H-BK, 100 μl of the test compound solution or vehicle (TES assay buffer), and 100 μl of 25 mg/ml tissue homogenate in a total volume of 1 ml. The final concentration of ^3 H-BK is 80 pM. The final tissue concentration is 2.5 mg/ml. Compounds are screened at 100 μM. Nonspecific binding is determined in the presence of 1 μM unlabeled bradykinin. All determinations are made in triplicate. Three 100 μl aliquots of the 800 pM 3 H-BK working solution are added directly to scintillation vials to determine the total added radioactivity.
The tubes are incubated for 90 minutes at 25° C. while being gently agitated on an orbital shaker. Bound ligand is separated from free ligand, using Whatman GF/B glass fiber filters (pretreated with 0.1% aqueous polyethyleneimine made neutral with HCl). A Brandel receptor binding harvester is used. Assay tubes and glass fiber filters are rinsed three times with 3 ml of cold physiological saline.
The filter discs are transferred to 20 ml scintillation vials. Ten ml of aqueous sample LSC cocktail (Aquassure, New England Nuclear) is added to each vial. After capping, the vials are agitated for 5 minutes on an orbital shaker. The samples are counted for ten minutes in a refrigerated liquid scintillation counter.
The following values are obtained:
Bx Total binding in the presence of the test compound
C Control specific binding. C=Bt -Bns
D Specific binding in the presence of the test compound. D=Bx -Bns
Percent of control: D/C×100
Percent Inhibition: (1-D/C)×100
After calculation of Percent of Control for each dilution, the values are analyzed and the IC50 with its 95% confidence limits is determined on a Hewlett Packard 9816 computer using the program "PS-NONLIN" (generalizednon-linear regression with inverse prediction and graphics).

In general, IC50 refers to the concentration that gives 50% inhibition. On to “Thi^5,8 --DPhe^7 --BK [reference compound]”, for which the IC50 on BK2 receptor (guinea pig ileum homogenate, 80 pM 3H-BK, 90 min, 25° C., pH 6.8, read-out: IC50 (reference compounds)) is 0.069 µM.
A word on the % Inhibition: it is the relative decrease from the control value, in per cent. Low readings indicate a weak effect, high ones a strong effect. Turning to `CCCCN1CCC(N(Cc2ccc(Nc3ccnc4cc(Cl)ccc34)cc2)C(=O)C(F)(F)F)CC1.Cl` [Example 7, N-(1-butyl-4-piperidinyl)-N-[[4-[(7-chloro-4-quinolinyl)amino]-phenyl]methyl]-2,2,2-trifluoroacetamide, hydrochloride], in experiment [1] (setting [2]), the “% Inhibition at 30 mg/kg i.p.” value was determined as 44.0%. Moreover, the IC50 at BK2 receptor (setting [3]) amounted to 2.4 µM.
As for `CCCCN1CCC(N(Cc2ccc(Nc3ccnc4cc(Cl)ccc34)cc2)C(C)=O)CC1` [Example 2, N-(1-Butyl-4-piperidinyl)-N-[[4-[(7-chloro-4-quinolinyl)amino]phenyl]methyl]acetamide], in experiment [1] (setting [2]), the “% Inhibition at 30 mg/kg i.p.” value amounted to 51.0%. The “% Inhibition at 200 mg/kg p.o.” value in experiment [1] (setting [4]) amounted to 26.0%. The IC50 at BK2 receptor (setting [3]) worked out at 6 µM.
With `CCCCCCCCCCCC(=O)N(Cc1ccc(Nc2ccnc3cc(Cl)ccc23)cc1)C1CCN(CCCCCC(=O)N(CC)CC)CC1.Cl` [Example 16, 4-[[[4-[(7-Chloro-4-quinolinyl)amino]phenyl]methyl](1-oxododecyl)-amino]-N,N-diethyl-1-piperidinehexanamide, hydrochloride], the “% Inhibition at 30 mg/kg i.p.” value in experiment [1] (setting [2]) was 30%. Besides, the IC50 at BK2 receptor (setting [3]) is 3.8 µM.
Take “Des Arg^9 --BK: BK1 Agonist (RPPGFSPF; Bradykinin; UniProt P01042 381-388, looked up, fragment) [reference compound]”: the “Activity (reference compounds, 3H-BK binding)” value with BK2 receptor (setting [5]) is “No Activity”.
With `Clc1ccc2c(Nc3ccc(CNC4CCN(Cc5ccccc5)CC4)cc3)ccnc2c1` [Example 10, 7-Chloro-N-[4-[[[1-(phenylmethyl)-4-piperidinyl]amino]methyl]phenyl]-4-quinolinamine], the “% Inhibition at 30 mg/kg i.p.” value in experiment [1] (setting [2]) is listed as 2.5%. The concentration for half-maximal inhibition (IC50) on BK2 receptor (setting [3]) was found to be 4 µM.
Consider `CCCCN1CCC(NCc2ccc(Nc3ccnc4cc(Cl)ccc34)cc2)CC1` [Example 1, N-[4-[[(1-Butyl-4-piperidinyl)amino]methyl]phenyl]-7-chloro-4-quinolinamine], for which, in experiment [1] (setting [2]), the “% Inhibition at 30 mg/kg i.p.” value was 13.1%. In addition, the “% Inhibition at 200 mg/kg p.o.” value in experiment [1] (setting [4]) came to 7.1%. Besides, the IC50 at BK2 receptor (setting [3]) came out at 8.4 µM.
As usually defined, the ED50 is the midpoint of the dose-response relation. For the compound `CN1CC[C@]23c4c5ccc(O)c4O[C@H]2[C@@H](O)C=C[C@H]3[C@H]1C5` [Morphine, reference compound], the ED50 in experiment [1] (Mus musculus, po) is 4.5 mg/kg.
For the compound `CCCC(=O)N(Cc1ccc(Nc2ccnc3cc(Cl)ccc23)cc1)C1CCN(Cc2ccc(C(=O)N(CC)CC)cc2)CC1` [Example 12, 4-[[4-[[[4-[(7-Chloro-4-quinolinyl)amino]phenyl]methyl]-(1-oxobutyl)amino]-1-piperidinyl]methyl]-N,N-diethylbenzamide, hydrochloride, 0.76 hydrate], in experiment [1] (setting [2]), the “% Inhibition at 30 mg/kg i.p.” value amounted to 5%. In addition, the IC50 on BK2 receptor (setting [3]) stood at 2.7 µM.
In the case of `CCCCN1CCC(N(Cc2ccc(Nc3ccnc4cc(Cl)ccc34)cc2)C(=O)CCC)CC1.Cl` [Example 8, N-(1-Butyl-4-piperidinyl)-N-[[4-[(7-chloro-4-quinolinyl)-amino]phenyl]methyl]butanamide, hydrochloride], in experiment [1] (setting [2]), the “% Inhibition at 30 mg/kg i.p.” value is listed as 80.0%. In addition, the “% Inhibition at 200 mg/kg p.o.” value in experiment [1] (setting [4]) is 58.0%. For the same compound, on BK2 receptor (setting [3]), the IC50 came out at 1.2 µM.
On to `CCN(CC)C(=O)c1ccc(CN2CCC(NCc3ccc(Nc4ccnc5cc(Cl)ccc45)cc3)CC2)cc1.Cl` [Example 9, 4-[[4-[[[4-[(7-Chloro-4-quinolinyl)amino]phenyl]methyl]amino]-1-piperidinyl]methyl]-N,N-diethylbenzamide, hydrochloride], for which the “% Inhibition at 30 mg/kg i.p.” value in experiment [1] (setting [2]) was found to be 0.0%. Further, the IC50 on BK2 receptor (setting [3]) was found to be 0.77 µM.
For `O=C(c1ccccc1)N1CCC(NCc2ccc(Nc3ccnc4cc(Cl)ccc34)cc2)CC1` [Example 15, 1-Benzoyl-N-[[[4-[(7-chloro-4-quinolinyl)amino]phenyl]methyl]-4-piperidinanaminetrifluoroacetate (1:2), 1.03 hydrate], the “% Inhibition at 30 mg/kg i.p.” value in experiment [1] (setting [2]) came out at 43%. Besides, the IC50 at BK2 receptor (setting [3]) amounted to 13.8 µM.
Regarding `CC(=O)Nc1ccc(O)cc1` [Acetaminophen, reference compound], the “% inhibition of writhing” value in experiment [1] (at 300 mg/kg p.o. (reference compound acetaminophen)) was found to be 20%.
`CC(C)Cc1ccc(C(C)C(=O)O)cc1` (centres unmarked) [Ibuprofen, reference compound]: the “% inhibition of writhing” value in experiment [1] (at 200 mg/kg p.o. (reference compound ibuprofen)) is 43%.
Turning to `CCN(CC)C(=O)CCCCCN1CCC(NCc2ccc(Nc3ccnc4cc(Cl)ccc34)cc2)CC1` [Example 13, 4-[[[4-[(7-Chloro-4-quinolinyl)amino]phenyl]methyl]amino]-N,N-diethyl-1-piperidinehexanamide, tris(trifluoroacetate), 0.42 hydrate], the “% Inhibition at 30 mg/kg i.p.” value in experiment [1] (setting [2]) was 43%. The IC50 on BK2 receptor (setting [3]) worked out at 3.9 µM.
Take `CC(C(=O)O)c1cccc(C(=O)c2ccccc2)c1` (centres unmarked) [Ketoprofen, reference compound]: in experiment [1] (mouse, in vivo, po, 100 mg/kg), the “% inhibition of writhing” value turned out to be 52%.
Regarding `CCCCN1CCC(N(Cc2ccc(Nc3ccnc4ccccc34)cc2)C(C)=O)CC1` [Example 3, N-(1-Butyl-4-piperidinyl)-N-[[4-(4-quinolinylamino)phenyl]methyl]acetamide], the concentration for half-maximal inhibition (IC50) at BK2 receptor (setting [3]) was 10.8 µM.
With `CCCC(=O)N(Cc1ccc(Nc2ccnc3cc(Cl)ccc23)cc1)C1CCN(CCCCCC(=O)N(CC)CC)CC1` [Example 14, 4-[[[4-[(7-Chloro-4-quinolinyl)amino]phenyl]methyl](1-oxobutyl)amino]-N,N-diethyl-1-piperidinehexanamide, 0.56 hydrate], the “% Inhibition at 30 mg/kg i.p.” value in experiment [1] (setting [2]) came to 81%. For the same compound, the “% Inhibition at 200 mg/kg p.o.” value in experiment [1] (setting [4]) came out at 46%. The IC50 at BK2 receptor (setting [3]) came to 5.5 µM.
For “DesArg^9 --Leu^8 BK: BK1 Antagonist [reference compound]”, in the experiment with BK2 receptor (setting [5]), the “Activity (reference compounds, 3H-BK binding)” value is reported as “No Activity”.
Regarding `CCCCN1CCC(N(Cc2ccc(Nc3ccnc4cc(Cl)ccc34)cc2)C(=O)CCc2ccccc2)CC1.Cl` [Example 5, N-(1-Butyl-4-piperidinyl)-N-[[4-[(7-chloro-4-quinolinyl)amino]phenyl]methyl]benzenepropanamide, hydrochloride], the “% Inhibition at 30 mg/kg i.p.” value in experiment [1] (setting [2]) came out at 85.0%. Moreover, in experiment [1] (setting [4]), the “% Inhibition at 200 mg/kg p.o.” value was 27.0%. For the same compound, on BK2 receptor (setting [3]), the IC50 amounted to 1.6 µM.
Regarding `CCCCN1CCC(N(Cc2ccc(Nc3ccnc4cc(Cl)ccc34)cc2)C(=O)C(F)(F)C(F)(F)C(F)(F)F)CC1.Cl` [Example 6, N-(1-Butyl-4-piperidinyl)-N-[[4-[(7-chloro-4-quinolinyl)amino]phenyl]-methyl]-2,2,3,3,4,4,4-heptafluorobutanamide, hydrochloride], the “% Inhibition at 30 mg/kg i.p.” value in experiment [1] (mouse, in vivo) was 68.0%. Besides, the IC50 on BK2 receptor turned out to be 4.3 µM.
Turning to `CCCCN1CCC(N(Cc2ccc(Nc3ccnc4cc(Cl)ccc34)cc2)C(=O)c2ccccc2)CC1` [Example 4, N-(1-Butyl-4-piperidinyl)-N-[[4-[7-chloro-4-quinolinyl)amino]phenyl]methyl]benzamide, hydrochloride], the “% Inhibition at 30 mg/kg i.p.” value in experiment [1] (setting [2]) was 40.0%. On BK2 receptor (setting [3]), the IC50 was found to be 2 µM.

(Values after patent publication US5216165A, “N-substituted aminoquinolines as analgesic agents” (American Home Products Corporation, priority 1992, dated 1993).)
